Source: article PMC5316403, “A multicenter assessment of single-cell models aligned to standard measures of cell health for prediction of acute hepatotoxicity” (Archives of Toxicology, 2016)
Where two headings read alike, the source gives them in different places.

Columns and labels:
man = details: cited from earlier work
[1] = design: method as in references provided in Table 4; details: therapeutic concentrations, used to calculate EC50/Cmax; ref references provided in Table 4; cited from earlier work
Upcyte hepatocytes = test: Cytotoxicity (intracellular ATP, CellTiter Glo) in Upcyte hepatocytes; type: cell-based, human; details: Upcyte cells, 24 or 72 h, all test sites, up to highest dose
Procedure: The cells were then centrifuged (90×g; 5 min; room temperature) and resuspended in fresh Upcyte High Performance Medium (Medicyte, Heidelberg, Germany). Cell number and viability were determined via the trypan blue exclusion method, and the cells were seeded at 18,750 cells/well in white/clear bottom 96-well plates (Beckton Dickinson, New Jersey, USA). After seeding, the cells were incubated for 72 h (37 °C; 5 % CO2; 95 % air) without additional medium change prior to compound treatment.
The compound concentrations used were chosen as representative for each compound when conducting an in vitro safety assessment study. […] Stock aliquots were stored at −20 °C and only thawed once. […]
(§1) The CellTiter Glo assay kit (Promega, Madison, WI, USA) was used to determine the ATP content in the cells after exposure to the thirteen compounds for 24 or 72 h. […] The supernatant samples were transferred into opaque flat-bottomed 96-well plates (Greiner-Bio-One, Frickenhausen, Germany) and the luminescence measured.
(§2) Cell viability was determined as the percentage of the fluorescent resorufin after incubation with resazurin in the treated cells compared with vehicle control or the percentage of ATP detected in the treated cells compared with vehicle control. Individual EC50 values from all participants were calculated using GraphPad Prism 6 (version 6.03) at one partner site. […]

[2] = system: primary human hepatocytes (PHH); test: Cytotoxicity (intracellular ATP, CellTiter Glo) in primary human hepatocytes; type: cell-based; details: cryopreserved PHH, 24 or 72 h, all test sites, up to highest dose
Procedure: Cryopreserved PHH from five donors were provided by KaLy-Cell (Plobsheim, France). […] Cell number and viability were determined by the trypan blue exclusion method, and the cells were plated at a seeding density of 70,000 cells/well of a KaLy-Cell home-coated type I rat tail collagen (10 µg/well) 96-well plate. […]
as §1, §2

[3] = system: cryopreserved HepaRG cells; test: Cytotoxicity (intracellular ATP, CellTiter Glo) in cryopreserved HepaRG cells; type: cell-based, human; details: 24 or 72 h, all test sites, up to highest dose
Procedure: Differentiated cryopreserved HepaRG cells were purchased from Biopredic International (Saint-Gregoire, France). The cells were thawed in Thawing/Plating Medium [Williams’ Medium E supplemented with 1 % penicillin/streptomycin, 1 % L-Glutamine, 10 % FCS and 12.5 % ADD670 cocktail (BioPredic International, Saint-Gregoire, France; proprietary medium composition)], centrifuged (500×g; 5 min; room temperature) and then resuspended in fresh Thawing/Plating Medium. After the addition of the ADD670 cocktail, the final DMSO concentration in the Thawing/Plating Medium was 0.5 %. Cell number and viability were determined by the trypan blue exclusion method, and the cells were plated at a seeding density of 72,000 cells/well in white/clear bottom 96-well plates (Beckton Dickinson, New Jersey, USA). […]
as §1
Cell viability was determined as the percentage of the fluorescent resorufin after incubation with resazurin in the treated cells compared with vehicle control or the percentage of ATP detected in the treated cells compared with vehicle control. […]

HepG2/ECACC cells = test: Cytotoxicity (intracellular ATP, CellTiter Glo) in HepG2/ECACC cells; type: cell-based, human; details: 24 or 72 h, all test sites, up to highest dose
Procedure: A specific clone of HepG2 cells was purchased from the European Collection of Cell Cultures (ECACC). The cells were cultivated and low passage frozen stocks were generated and banked by one MIP-DILI partner designated as the cell bank. The cells were distributed to the relevant MIP-DILI partners. […] Cell number and viability were determined using the trypan blue exclusion method, and the cells were plated at a seeding density of 20,000 cells/well in BD Biocoat Collagen I 96-well plates (Beckton Dickinson, New Jersey, USA). […]
as §1, §2

[4] = reported to cause hepatotoxicity in man or not, ref references in Table 4

| Structure (SMILES) | Hepatotoxic/non-hepatotoxic (man; [4]) | Cmax [1] | also measured |
| --- | --- | --- | --- |
| O=C1CC2(CCCC2)CC(=O)N1CCCCN1CCN(c2ncccn2)CC1 [Buspirone] | Non-hepatotoxic |  |  |
| CN(C)C(=N)N=C(N)N [Metformin] |  | 7740 nM |  |
| CCN(CC)C(=O)/C(C#N)=C/c1cc(O)c(O)c([N+](=O)[O-])c1 [Entacapone] | Non-hepatotoxic | 1500 nM |  |
| Cc1ccc(C(=O)c2cc(O)c(O)c([N+](=O)[O-])c2)cc1 [Tolcapone] | Hepatotoxic | 27800 nM |  |
| CCOC(=O)CN[C@@H](C(=O)N1CC[C@H]1C(=O)NCc1ccc(/C(N)=N\O)cc1)C1CCCCC1 [Ximelagatran] |  |  | toxicity (cell viability) (Upcyte hepatocytes): no toxicity was detected even at the highest doses; toxicity (cell viability) [2]: no toxicity was detected even at the highest doses; toxicity (cell viability) [3]: no toxicity was detected even at the highest doses; toxicity (cell viability) (HepG2/ECACC cells): no toxicity was detected even at the highest doses |
| CCc1nn(CCCN2CCN(c3cccc(Cl)c3)CC2)c(=O)n1CCOc1ccccc1 [Nefazodone] | Hepatotoxic | 859 nM |  |
| C1CCC(C(CC2CCCCN2)C2CCCCC2)CC1 (stereo not drawn) [Perhexiline] | Hepatotoxic | 1520 nM |  |
| O=C(O)Cc1ccccc1Nc1c(Cl)cccc1Cl [Diclofenac] |  |  | Hepatotoxic/non-hepatotoxic (man; in vivo): Hepatotoxic |
| CC(=O)Nc1ccc(O)cc1 [Paracetamol] | Hepatotoxic |  |  |
| COc1ccccc1Oc1c(NS(=O)(=O)c2ccc(C(C)(C)C)cc2)nc(-c2ncccn2)nc1OCCO [Bosentan] | Hepatotoxic |  |  |
| Cc1c(C)c2c(c(C)c1O)CCC(C)(COc1ccc(CC3SC(=O)NC3=O)cc1)O2 (stereo not drawn) [Troglitazone] | Hepatotoxic | 6390 nM |  |
| CCc1ccc(CCOc2ccc(CC3SC(=O)NC3=O)cc2)nc1 (stereo not drawn) [Pioglitazone] | Non-hepatotoxic | 2670 nM |  |
